Patent US20210009551A1, “COMPOUNDS AND METHODS FOR TREATING FIBROSIS OR CANCER” (THE REGENTS OF THE UNIVERSITY OF CALIFORNIA, priority 2016, published 2021)
Where “and” joins values, the source holds several entries; their conditions need not be identical. Identical values can stand only once. Entries after “also recorded” stand apart in the source; their conditions may differ. Each block holds one molecule with its values, some of them ahead of it.

Assays:
[1] = target: T1, human TGFbeta receptor I and II (Homo sapiens, UniProt P36897); assay: In vitro TGFβ receptor kinase assay (pull down); assay type: biochemical; details: 20 μM
T1 construct: expressed in transfected cells; host or cells: A549 cells, anti-Flag immunoprecipitate on Protein G-agarose
T1 sequence (P36897 34-503): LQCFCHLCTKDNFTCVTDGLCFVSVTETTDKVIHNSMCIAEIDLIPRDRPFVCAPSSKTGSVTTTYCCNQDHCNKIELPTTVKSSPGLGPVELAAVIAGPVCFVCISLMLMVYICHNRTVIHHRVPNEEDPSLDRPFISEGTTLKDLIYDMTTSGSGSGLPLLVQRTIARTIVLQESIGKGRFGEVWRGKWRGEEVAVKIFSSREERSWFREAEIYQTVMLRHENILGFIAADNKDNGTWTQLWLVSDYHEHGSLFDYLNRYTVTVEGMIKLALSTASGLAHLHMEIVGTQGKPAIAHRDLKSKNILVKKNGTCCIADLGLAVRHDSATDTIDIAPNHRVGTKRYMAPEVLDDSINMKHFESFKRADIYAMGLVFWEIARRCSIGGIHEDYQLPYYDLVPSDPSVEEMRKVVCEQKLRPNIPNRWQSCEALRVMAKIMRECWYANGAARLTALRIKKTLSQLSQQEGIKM
Experimental: In vitro TGFβ receptor kinase assay. A549 cells were transiently co-transfected with Flag-tagged human TGFbeta receptor I and II. After 24 hours the cells were lysed in 1% NP40 lysis buffer (1% NP40, 20 mM Tris pH7.6, 200 mM NaCl plus protease inhibitor cocktail, 10 mM NaF, 1 mM Na3VO4), and the type I and II receptors were immunoprecipitated using anti-Flag antibody and Protein G-agarose (Roche). The beads were washed three times with kinase buffer (0.01% Triton X-100, 25 mM HEPES, pH 7.4, 2 mM MnCl2, 10 mM MgCl2, 20 μM DTT, 0.1 mM NaF, 0.1 mM Na3 VO4). The kinase reactions were initiated by addition of 0.1 mM ATP in the presence or absence of inhibitors or lysate from A549 cells pre-treated with corilagin. The kinase reactions were terminated by addition of an equal volume of 2×sample buffer. The TGFbeta receptor kinase activity was analyzed by SDS-PAGE and immunoblotting with anti-phosphotyrosine monoclonal antibody 4G10 (EMD Millipore) and anti-Flag antibody.

[2] = target: T2, ALK5/TGFβRI catalytic domain (Homo sapiens, UniProt P36897); assay: ALK5/TGFβRI catalytic domain kinase assay; assay type: biochemical
T2 construct: ALK5/TGFβRI kinase assays using purified catalytic domain was performed
T2 sequence (P36897 205-495 limits assumed): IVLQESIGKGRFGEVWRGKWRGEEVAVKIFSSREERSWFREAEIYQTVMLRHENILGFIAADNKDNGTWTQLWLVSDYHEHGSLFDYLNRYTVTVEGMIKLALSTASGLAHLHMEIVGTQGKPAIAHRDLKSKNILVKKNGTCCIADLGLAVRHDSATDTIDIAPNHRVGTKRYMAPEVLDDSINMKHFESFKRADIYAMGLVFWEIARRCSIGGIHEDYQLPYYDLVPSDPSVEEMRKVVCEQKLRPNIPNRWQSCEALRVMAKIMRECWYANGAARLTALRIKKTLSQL
Experimental: ALK5/TGFβRI catalytic domain kinase assay. ALK5/TGFβRI kinase assays using purified catalytic domain was performed. The reaction buffer contains 20 mM Hepes (pH 7.5), 10 mM MgCl2, 1 mM EGTA, 0.02% Brij35, 0.02 mg/ml BSA, 0.1 mM Na3VO4, 2 mM DTT, and 200 μM NAC. In brief, ten 3-fold series dilutions of 3Abd and 2Abd starting at 100 μM was delivered into kinase reaction mixture with kinase, cofactors, and substrate. After 20 min incubation at room temperature, ^33P-ATP was delivered into the mixture to initiate the reaction. Kinase activity was detected 2 h later by P81 filter-binding method.

[3] = system: TGFβ1 signaling (p-smad3) in A549 cells; assay: TGFβ1-induced p-smad generation in cells (immunoblot); assay type: cell-based; details: 0.5-10 μM
Experimental: (§1) Immunoblot. Pulverized tissue and cells were lysed in RIP A buffer (150 mM NaCl, 50 mM Tris, pH 8.0, 1% Triton X-100, 0.5% sodium deoxycholate, 0.1% SDS, supplemented with protease and phosphatase inhibitors) and analyzed by immunoblotting. Densitometry was quantified using NIH Imaged software.

[4] = system: C57BL/6 mice, intratracheal bleomycin; assay: Bleomycin fibrosis model; assay type: in vivo
Experimental: For histological assessment of lung collagen, frozen sections of the left lung were stained using Masson's Trichrome stain kit (American MasterTech, Lodi, Calif., USA).
Bleomycin fibrosis model. Eight-week old C57BL/6 mice were intratracheally instilled with saline or 1.9 units/kg of bleomycin (Sigma-Aldrich). Mice were implanted with osmotic pumps loaded with ellagic acid salt (24 mg/kg/day, Day 10-Day 17), fed with red raspberry diet (Day 0-Day 21), or gavaged with corilagin (100 mg/kg, Day 10-Day 21). Controls were treated with control pump, control diet, or vehicle in the same formulation. The lungs were lavaged and followed by OCT embedding for imaging or snap freezing in liquid nitrogen for protein extraction or hydroxyproline assay.
Collagen content Lung or aorta collagen content was evaluated using hydroxyproline assay. Briefly, whole left lung tissue or aorta was hydrolyzed in 1 ml 12N HCl at 110° C. for 24 h and the hydroxyproline was detected by incubating with Chloramine T and p-dimethylaminobenzaldehyde and the absorbance was measured at 550 nm. Each sample was run in triplicate. Collagen content in lung or aorta tissues was expressed as micrograms of collagen per lung or aorta and was converted from micrograms of hydroxyproline.

Solubility (statement) = assay type: physicochemical
[5] = system: TGFβ1-induced epithelial-mesenchymal transition (EMT) in A549 adenocarcinoma cells; assay: TGFβ1-induced EMT in A549 cells (image-based screen, immunoblot); assay type: cell-based; details: catechins 1 and 10 μM, 48 h
Experimental: High throughput screen and high content imaging analysis. A549 cell-based screening of inhibitors to TGFβ1-induced EMT from a bioactive small molecule library was performed in 384-well plate format and the images were captured and analyzed using GE IN Cell 2000 as described previously^16.
as §1

human LOXL2 = target: T3, human LOXL2 (Homo sapiens, UniProt Q9Y4K0); assay: Collagen crosslinking induced by recombinant LOXL2 in lung fibroblasts (Sircol assay); assay type: cell-based; details: primary human lung fibroblasts, 7 days
T3 sequence (Q9Y4K0 26-774): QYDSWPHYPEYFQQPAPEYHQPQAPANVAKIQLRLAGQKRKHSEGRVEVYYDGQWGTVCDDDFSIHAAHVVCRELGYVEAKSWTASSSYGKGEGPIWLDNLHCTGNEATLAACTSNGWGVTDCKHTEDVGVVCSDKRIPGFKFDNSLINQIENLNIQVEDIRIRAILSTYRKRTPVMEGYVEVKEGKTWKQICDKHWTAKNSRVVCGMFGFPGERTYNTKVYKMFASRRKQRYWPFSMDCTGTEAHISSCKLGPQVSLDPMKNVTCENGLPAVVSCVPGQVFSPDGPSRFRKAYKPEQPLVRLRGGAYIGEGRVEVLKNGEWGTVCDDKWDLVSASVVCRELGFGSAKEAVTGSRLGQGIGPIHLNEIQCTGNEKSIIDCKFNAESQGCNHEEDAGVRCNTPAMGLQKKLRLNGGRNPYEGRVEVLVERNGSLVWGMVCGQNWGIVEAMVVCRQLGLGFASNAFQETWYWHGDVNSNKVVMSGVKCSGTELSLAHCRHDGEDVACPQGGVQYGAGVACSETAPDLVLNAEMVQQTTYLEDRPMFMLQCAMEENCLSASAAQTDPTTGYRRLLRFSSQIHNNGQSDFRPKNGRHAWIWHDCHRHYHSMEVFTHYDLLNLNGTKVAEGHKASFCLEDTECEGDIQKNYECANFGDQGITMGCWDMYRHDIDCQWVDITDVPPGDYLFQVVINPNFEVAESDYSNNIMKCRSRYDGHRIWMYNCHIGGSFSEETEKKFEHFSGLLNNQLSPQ
Experimental: Preparation of insoluble cross-linked collagen. Fibroblasts were cultured on 10 cm dish until confluent. The medium was then changed to Dulbecco's modified Eagle's medium (DMEM) containing 5% FBS, 100 μM L-ascorbic acid with 500 kDa Dextran Sulfate at 100 μg/ml, and 50 ng/ml recombinant human LOXL2 (rhLOXL2) for 7 days^21,22. The cell layer was extracted with 0.5 M acetic acid and 0.1 mg/ml pepsin overnight at 4° C. The leftover insoluble fraction was further extracted and the insoluble cross-linked collagen measured using Sircol Insoluble Collagen Assay kit according to manufacture's instruction.

- activity in a pull down kinase assay from cells overexpressing TGFβRI [1]: blocked activity
- IC50 ([2]; ten doses starting from 100 μM, 33P-ATP): ~3 µM and 3 µM
SMILES: Nc1cccc(O)c1O [Target 3Abd, 3-aminobenzene-1,2-diol]
- direct inhibition of TGFβRI kinase activity [2]: directly inhibit; also recorded: directly blocked
- inhibition of TGFβ1-induced p-smad3 and snail 1 without pre-incubation and regardless of LOXL2 expression [3]: potent inhibitor

SMILES: O=c1oc2c(O)c(O)cc3c(=O)oc4c(O)c(O)cc1c4c23 [EA, Ellagic acid]
- survival after intratracheal bleomycin ([4]; EA chow day 21, EA pump day 17): improve survival
- collagen accumulation after intratracheal bleomycin ([4]; ad libitum chow of 2% w/w raspberry extract rich in EA and EA precursors): substantially block
- solubility (Solubility (statement)): poorly soluble

SMILES: Nc1ccc(O)c(O)c1 [Target 4Abd, 4-aminobenzene-1,2-diol]
- inhibition of TGFβ1-induced p-smad3 and snail 1 without pre-incubation and regardless of LOXL2 expression [3]: not

SMILES: Oc1cc(O)c2c(c1)O[C@H](c1ccc(O)c(O)c1)[C@H](O)C2 [EC, epicatechin]
- inhibition of snail 1 and fibronectin in TGFβ1 stimulated A549 cells [5]: no activity

SMILES: Oc1cc(O)c2c(c1)O[C@H](c1cc(O)c(O)c(O)c1)[C@H](O)C2 [EGC, epigallocatechin]
- inhibition of snail 1 and fibronectin in TGFβ1 stimulated A549 cells [5]: potent inhibitor

- direct inhibition of TGFβRI kinase activity [2]: not
SMILES: Nc1c(O)cccc1O [Target 2Abd, 2-aminobenzene-1,3-diol]
- inhibition of TGFβ1-induced p-smad3 and snail 1 without pre-incubation and regardless of LOXL2 expression [3]: not

SMILES: Oc1cccc(Cl)c1O [3 Cc, 3-chlorocatechol]
- activity in a pull down kinase assay from cells overexpressing TGFβRI [1]: not

- effect on collagen crosslinking induced by recombinant LOXL2 (human LOXL2): no effect
SMILES: NC(=O)c1ccc(-c2nc(-c3ccc4c(c3)OCO4)c(-c3ccccn3)[nH]2)cc1 [SB431542]

- effect on collagen crosslinking induced by recombinant LOXL2 (human LOXL2): no effect
SMILES: CC(=O)N[C@@H](CS)C(=O)O [NAC, N-acetylcysteine]
